# Reference: PubChem BioAssay AID256 (DTP/NCI, 2004)
# Several values for one entry are separate records, joined by “and”; a condition that tells them apart may be missing. Equal entries are not always repeated. Toxic doses and inconclusive results are not listed.
# Test system: CD2F1 mice, L1210 leukemia ip, survival T/C
# Test: NCI In Vivo Anticancer Drug Screen. Data for tumor model L1210 Leukemia (intraperitoneal) in CD2F1 (CDF1) mice
# Conditions: higher = longer survival
# Method in brief: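 Implant tumor; dose compound or vehicle; measure endpoint in both groups; report treated divided by control.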
# [1] = endpoint: mean survival time, dose: 100.0 mg/kg/injection, schedule: Q04DX003 (ip), vehicle: saline with Tween-80
# [2] = endpoint: mean survival time, dose: 200.0 mg/kg/injection, schedule: Q04DX003 (ip), vehicle: saline with Tween-80
# [3] = endpoint: mean survival time, dose: 400.0 mg/kg/injection, schedule: Q04DX003 (ip), vehicle: saline with Tween-80
# [4] = endpoint: mean survival time, dose: 50.0 mg/kg/injection, schedule: Q01DX009 (ip), vehicle: saline with Tween-80
# [5] = endpoint: mean survival time, dose: 100.0 mg/kg/injection, schedule: Q01DX009 (ip), vehicle: saline with Tween-80
# [6] = endpoint: mean survival time, dose: 200.0 mg/kg/injection, schedule: Q01DX009 (ip), vehicle: saline with Tween-80
# [7] = endpoint: mean survival time, dose: 400.0 mg/kg/injection, schedule: Q01DX009 (ip), vehicle: saline with Tween-80
compound,measurement,setting,value
O=C1c2ccccc2C(=O)c2c(NCCN3CCNCC3)ccc(NCCN3CCNCC3)c21,T/C,"endpoint: mean survival time, dose: 4.0 mg/kg/injection, schedule: Q01DX009 (ip), vehicle: acid diluted with saline",100 % of control
same,T/C,"endpoint: mean survival time, dose: 8.0 mg/kg/injection, schedule: Q01DX009 (ip), vehicle: acid diluted with saline",102 % of control
same,T/C,"endpoint: mean survival time, dose: 16.0 mg/kg/injection, schedule: Q01DX009 (ip), vehicle: acid diluted with saline",106 % of control
same,T/C,"endpoint: mean survival time, dose: 32.0 mg/kg/injection, schedule: Q01DX009 (ip), vehicle: acid diluted with saline",104 % of control
CC(=O)/C(N=O)=C(/C)O,T/C,"endpoint: mean survival time, dose: 200.0 mg/kg/injection, schedule: Q01DX001 (ip), vehicle: saline with Tween-80",88 % of control
same,T/C,"endpoint: mean survival time, dose: 400.0 mg/kg/injection, schedule: Q01DX001 (ip), vehicle: saline with Tween-80",92 % of control
CC(C)OC(=O)c1cc([N+](=O)[O-])c(Sc2ncnc3nc[nH]c23)c([N+](=O)[O-])c1,T/C,"endpoint: mean survival time, dose: 0.63 mg/kg/injection, schedule: Q01DX005 (ip), vehicle: other",109 % of control
same,T/C,"endpoint: mean survival time, dose: 1.25 mg/kg/injection, schedule: Q01DX005 (ip), vehicle: other",119 % of control
same,T/C,"endpoint: mean survival time, dose: 2.5 mg/kg/injection, schedule: Q01DX005 (ip), vehicle: other",114 % of control
same,T/C,"endpoint: mean survival time, dose: 5.0 mg/kg/injection, schedule: Q01DX005 (ip), vehicle: other",124 % of control
same,T/C,"endpoint: mean survival time, dose: 9.9 mg/kg/injection, schedule: Q01DX005 (ip), vehicle: other",115 % of control
same,T/C,"endpoint: mean survival time, dose: 25.0 mg/kg/injection, schedule: Q01DX005 (ip), vehicle: other",157 % of control
same,T/C,"endpoint: mean survival time, dose: 33.3 mg/kg/injection, schedule: Q01DX005 (ip), vehicle: other",158 % of control
same,T/C,"endpoint: mean survival time, dose: 50.0 mg/kg/injection, schedule: Q01DX005 (ip), vehicle: other",151 % of control and 178 % of control and 184 % of control
same,T/C,"endpoint: mean survival time, dose: 100.0 mg/kg/injection, schedule: Q01DX005 (ip), vehicle: other",89 % of control
Cc1ccc([N+](=O)[O-])cc1NC(=O)SCCOC(=O)COc1ccc(Cl)cc1,T/C,[1],98 % of control
same,T/C,[2],96 % of control
same,T/C,[3],98 % of control
CC(C)[CH2][Sn](=[O])[OH],T/C,[4],115 % of control
same,T/C,[5],103 % of control
C=C=CCCCCCCCC,T/C,[1],102 % of control
same,T/C,[2],98 % of control
same,T/C,[3],105 % of control
O=c1c2ccccc2nnn1OCc1ccccc1,T/C,"endpoint: mean survival time, dose: 12.5 mg/kg/injection, schedule: Q01DX001 (ip), vehicle: distilled water + Tween-80",104 % of control
same,T/C,"endpoint: mean survival time, dose: 25.0 mg/kg/injection, schedule: Q01DX001 (ip), vehicle: distilled water + Tween-80",90 % of control
same,T/C,"endpoint: mean survival time, dose: 50.0 mg/kg/injection, schedule: Q01DX001 (ip), vehicle: distilled water + Tween-80",92 % of control
same,T/C,"endpoint: mean survival time, dose: 100.0 mg/kg/injection, schedule: Q01DX001 (ip), vehicle: distilled water + Tween-80",90 % of control
same,T/C,"endpoint: mean survival time, dose: 200.0 mg/kg/injection, schedule: Q01DX001 (ip), vehicle: distilled water + Tween-80",88 % of control
C/C(CC(C)C)=N\NC(=O)CNC(=O)c1ccccc1,T/C,[5],90 % of control
same,T/C,[6],92 % of control
same,T/C,[7],96 % of control
C/C(C(=O)O)=C(\C)C(=O)O,T/C,"endpoint: mean survival time, dose: 100.0 mg/kg/injection, schedule: Q01DX005 (ip), vehicle: saline",101 % of control
same,T/C,"endpoint: mean survival time, dose: 200.0 mg/kg/injection, schedule: Q01DX005 (ip), vehicle: saline",101 % of control
same,T/C,"endpoint: mean survival time, dose: 400.0 mg/kg/injection, schedule: Q01DX005 (ip), vehicle: saline",101 % of control
O=C(Nc1ccc(Cl)c(Cl)c1)Nc1cc(Cl)ccc1Sc1ccc(Cl)cc1S(=O)(=O)O,T/C,"endpoint: mean survival time, dose: 25.0 mg/kg/injection, schedule: Q01DX009 (ip), vehicle: saline with Tween-80",100 % of control
same,T/C,[4],100 % of control
same,T/C,[5],105 % of control
same,T/C,[1],101 % of control
O=C1C=CC(=O)N1c1ccccc1Cl (tested in a mixture with another compound),T/C,[5],95 % of control
same,T/C,[6],96 % of control
same,T/C,[7],98 % of control
COC(=O)c1nc(SC)n(C2OC(COC(=O)c3ccccc3)C(OC(=O)c3ccccc3)C2OC(=O)c2ccccc2)c1CC#N (configuration not stated),T/C,"endpoint: median survival time, dose: 9.13 mg/kg/injection, schedule: Q01DX005 (ip), vehicle: saline with Tween-80",100 % of control
same,T/C,"endpoint: median survival time, dose: 18.25 mg/kg/injection, schedule: Q01DX005 (ip), vehicle: saline with Tween-80",98 % of control
same,T/C,"endpoint: median survival time, dose: 36.5 mg/kg/injection, schedule: Q01DX005 (ip), vehicle: saline with Tween-80",91 % of control
same,T/C,"endpoint: median survival time, dose: 73.0 mg/kg/injection, schedule: Q01DX005 (ip), vehicle: saline with Tween-80",98 % of control
same,T/C,"endpoint: median survival time, dose: 146.0 mg/kg/injection, schedule: Q01DX005 (ip), vehicle: saline with Tween-80",96 % of control
COc1ccc(C(O)(c2ccccc2)C(O)c2ccccc2)cc1 (configuration not stated),T/C,"endpoint: mean survival time, dose: 12.5 mg/kg/injection, schedule: Q04DX002 (ip), vehicle: saline with Tween-80",93 % of control
same,T/C,"endpoint: mean survival time, dose: 25.0 mg/kg/injection, schedule: Q04DX002 (ip), vehicle: saline with Tween-80",86 % of control
same,T/C,"endpoint: mean survival time, dose: 50.0 mg/kg/injection, schedule: Q04DX002 (ip), vehicle: saline with Tween-80",86 % of control
same,T/C,[1],93 % of control
same,T/C,[2],87 % of control
same,T/C,[3],94 % of control and 89 % of control
